These results are taken from patent US7928140B2, “Benzothiazole PI3 kinase modulators for cancer treatment” (Amgen Inc., priority 2007, dated 2011).

One assay has as its target T1, PI3K β (Homo sapiens, UniProt P42338).
T1 construct: Full length p110 subunits of PI3K α, β and δ, N-terminally labeled with polyHis tag; polyHis (N); made in house; host or cells: Sf9 insect cells (baculovirus)
In words: In vitro PI3 kinase enzyme assay (beta), ATP loss, bioluminescence.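 Also: purified p110β/p85 heterodimer with PtdIns(4,5)P2 as acceptor, incubated at room temperature, leftover ATP read by luminescence, inhibition scaled to compound-free wells with and without enzyme.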 In kind it is biochemical. The settings on record: read-out: PI3Kβ ATP loss IC50.

Assay [1] deals with phosphorylation of Serine 473 in Akt, HCT 116 human colon carcinoma cells. Description: Cell-based phospho-AKT Ser473 assay (MSD sandwich immunoassay, IGF-1 stimulated). As to conditions: Homo sapiens. Summed up:
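HCT116 cells, 16,000/well and plated overnight, were pre-treated with serially diluted compound for 2 h at 37 °C, then stimulated with IGF-1 at 100 ng/ml for 15 min. Lysates were assayed for Akt pSer473 by MSD sandwich electrochemiluminescence, and IC50 was derived from dose-response data.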

For another assay, the target named is T2, PI3K α (Homo sapiens, UniProt P42336).
T2 construct: Full length p110 subunits of PI3K α, β and δ, N-terminally labeled with polyHis tag; polyHis (N); made in house; host or cells: Sf9 insect cells (baculovirus)
In words: In vitro PI3 kinase enzyme assay (alpha), ATP loss, bioluminescence.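 Also: purified p110α/p85 heterodimer acting on PtdIns(4,5)P2 at room temperature, remaining ATP read by luminescence, inhibition scaled between compound-free wells with and without enzyme.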 The settings on record: read-out: PI3Kα ATP loss IC50. It is filed as biochemical.

Setting [2] is: HCT-116, HCT 116 cells, read-out: HCT 116 pAKT IC50.
[3] abbreviates: HCT-116, read-out: HCT 116 pAKT IC50.

Like-named read-outs stand apart in the source and are kept apart here.

T1 sequence (P42338 whole entry): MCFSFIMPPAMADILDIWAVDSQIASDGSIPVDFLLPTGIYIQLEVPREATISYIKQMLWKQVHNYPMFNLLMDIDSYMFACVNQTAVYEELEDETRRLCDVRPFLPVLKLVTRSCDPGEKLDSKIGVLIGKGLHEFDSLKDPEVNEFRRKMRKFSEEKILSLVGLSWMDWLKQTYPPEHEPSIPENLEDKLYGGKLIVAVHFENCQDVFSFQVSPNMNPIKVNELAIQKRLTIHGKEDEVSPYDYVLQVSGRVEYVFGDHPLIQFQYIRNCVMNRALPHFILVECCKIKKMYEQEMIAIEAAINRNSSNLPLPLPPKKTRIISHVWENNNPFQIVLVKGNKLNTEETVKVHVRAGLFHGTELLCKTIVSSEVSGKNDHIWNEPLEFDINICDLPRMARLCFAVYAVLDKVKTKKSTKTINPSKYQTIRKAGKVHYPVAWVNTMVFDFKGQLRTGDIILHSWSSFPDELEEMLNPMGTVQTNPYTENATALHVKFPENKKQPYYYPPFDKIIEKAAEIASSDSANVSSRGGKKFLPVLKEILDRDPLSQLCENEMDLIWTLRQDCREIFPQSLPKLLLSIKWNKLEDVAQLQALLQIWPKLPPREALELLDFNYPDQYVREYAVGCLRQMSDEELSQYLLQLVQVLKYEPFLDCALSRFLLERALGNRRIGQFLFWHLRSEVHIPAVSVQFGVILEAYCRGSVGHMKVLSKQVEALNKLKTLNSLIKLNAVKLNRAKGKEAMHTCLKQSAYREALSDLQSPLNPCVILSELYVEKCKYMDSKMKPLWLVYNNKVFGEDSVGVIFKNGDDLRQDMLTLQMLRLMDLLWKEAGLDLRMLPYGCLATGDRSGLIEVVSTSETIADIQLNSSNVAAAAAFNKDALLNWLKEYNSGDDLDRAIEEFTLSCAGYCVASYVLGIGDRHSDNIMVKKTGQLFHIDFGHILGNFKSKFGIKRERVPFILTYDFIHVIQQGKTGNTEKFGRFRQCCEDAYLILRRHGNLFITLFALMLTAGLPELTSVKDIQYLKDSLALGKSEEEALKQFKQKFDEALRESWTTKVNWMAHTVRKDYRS
T1 sequence (P27986 whole entry partner): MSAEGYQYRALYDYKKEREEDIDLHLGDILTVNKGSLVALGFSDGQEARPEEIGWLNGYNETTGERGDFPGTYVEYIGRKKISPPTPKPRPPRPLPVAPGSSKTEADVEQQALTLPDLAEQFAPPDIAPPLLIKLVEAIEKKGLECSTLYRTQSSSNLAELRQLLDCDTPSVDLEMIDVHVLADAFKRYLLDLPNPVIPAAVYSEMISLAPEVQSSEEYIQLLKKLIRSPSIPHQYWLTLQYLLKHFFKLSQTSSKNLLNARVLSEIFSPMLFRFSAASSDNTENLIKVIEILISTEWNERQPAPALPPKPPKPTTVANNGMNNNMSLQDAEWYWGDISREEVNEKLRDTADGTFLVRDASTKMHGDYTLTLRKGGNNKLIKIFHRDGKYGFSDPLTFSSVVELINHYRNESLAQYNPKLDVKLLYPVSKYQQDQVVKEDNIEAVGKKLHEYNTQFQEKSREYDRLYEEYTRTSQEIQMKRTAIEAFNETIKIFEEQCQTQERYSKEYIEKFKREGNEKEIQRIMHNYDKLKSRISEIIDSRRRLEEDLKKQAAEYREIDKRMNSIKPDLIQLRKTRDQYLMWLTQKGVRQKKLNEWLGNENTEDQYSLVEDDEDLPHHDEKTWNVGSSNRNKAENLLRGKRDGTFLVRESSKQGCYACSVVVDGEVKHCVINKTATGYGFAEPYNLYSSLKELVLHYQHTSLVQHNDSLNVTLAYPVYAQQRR
T2 sequence (P42336 whole entry, species assumed): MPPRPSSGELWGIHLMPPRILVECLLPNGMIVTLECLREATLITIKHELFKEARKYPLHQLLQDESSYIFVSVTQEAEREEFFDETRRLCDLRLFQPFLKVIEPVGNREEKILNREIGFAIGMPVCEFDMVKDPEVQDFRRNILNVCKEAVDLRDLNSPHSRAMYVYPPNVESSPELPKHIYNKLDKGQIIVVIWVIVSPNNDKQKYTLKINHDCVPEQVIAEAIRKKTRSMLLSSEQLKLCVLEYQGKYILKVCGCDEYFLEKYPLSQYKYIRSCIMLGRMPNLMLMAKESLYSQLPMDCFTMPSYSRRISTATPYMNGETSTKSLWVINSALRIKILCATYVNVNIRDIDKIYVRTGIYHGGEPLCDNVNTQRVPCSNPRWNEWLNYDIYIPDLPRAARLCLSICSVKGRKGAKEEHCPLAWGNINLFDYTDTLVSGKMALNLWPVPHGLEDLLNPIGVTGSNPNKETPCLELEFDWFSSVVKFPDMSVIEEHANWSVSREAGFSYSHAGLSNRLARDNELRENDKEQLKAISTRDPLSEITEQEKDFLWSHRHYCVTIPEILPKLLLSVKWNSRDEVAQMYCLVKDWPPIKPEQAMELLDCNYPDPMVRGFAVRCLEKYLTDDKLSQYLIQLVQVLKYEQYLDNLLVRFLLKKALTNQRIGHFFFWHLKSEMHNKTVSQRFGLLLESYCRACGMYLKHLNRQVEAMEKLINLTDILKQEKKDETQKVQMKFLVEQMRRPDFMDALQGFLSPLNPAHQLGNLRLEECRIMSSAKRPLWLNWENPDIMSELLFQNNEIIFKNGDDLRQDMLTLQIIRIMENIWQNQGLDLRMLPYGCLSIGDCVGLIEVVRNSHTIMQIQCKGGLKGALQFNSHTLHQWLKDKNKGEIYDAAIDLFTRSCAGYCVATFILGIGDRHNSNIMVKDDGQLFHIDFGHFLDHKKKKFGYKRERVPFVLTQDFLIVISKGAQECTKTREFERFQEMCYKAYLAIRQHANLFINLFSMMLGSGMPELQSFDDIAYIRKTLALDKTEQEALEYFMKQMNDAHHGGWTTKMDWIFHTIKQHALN
T2 sequence (P27986 whole entry partner, species assumed): as the sequence (P27986 whole entry partner) above
Procedure for PI3K α: Full length p110 subunits of PI3K α, β and δ, N-terminally labeled with polyHis tag, were co-expressed with p85 in baculovirus expression vectors in sf9 insect cells. P110/p85 heterodimers were purified by sequential Ni-NTA, Q-HP, and Superdex-100 chromatography. Purified α, β and δ isozymes were stored at −20° C. in 20 mM Tris, pH 8, 0.2M NaCl, 50% glycerol, 5 mM DTT, 2 mM Na cholate.
PI3K enzyme assays (alpha, beta, delta and gamma) were performed in 25 mL with the above final concentrations of components in white polypropylene plates (Costar catalogue #3355). Phosphatidyl inositol phosphoacceptor, PtdIns(4,5)P2 (eg. P4508) was obtained from Echelon Biosciences. The ATPase activity of the alpha and gamma isozymes was not greatly stimulated by PtdIns(4,5)P2 under these conditions and was therefore omitted from the assay of these isozymes. Test compounds were dissolved in DMSO and diluted with three-fold serial dilutions. The compound in DMSO (1 μL) was added per test well, and the inhibition relative to reactions containing no compound, with and without enzyme was determined. After assay incubation at RT, the reaction was stopped and residual ATP determined by addition of an equal volume of a commercial ATP bioluminescence kit (Perkin Elmer EasyLite) according to the manufacturer's instructions, and detected using an Analyst GT luminometer.

The IC50 is the concentration needed to halve the response being measured. For `CC(=O)Nc1nc2ccc(-c3cnc(Cl)c(NS(=O)(=O)c4ccc(C(C)O)cc4)c3)cc2s1` (stereo not drawn) [Example 256, N-(6-(6-chloro-5-(4-(1-hydroxyethyl)phenylsulfonamido)pyridin-3-yl)benzo[d]thiazol-2-yl)acetamide], the IC50 on PI3K β is 7.3 nM; in assay [1] (setting [2]) it was 9.9 nM; on PI3K α it was 5.2 nM.

As for `CC(=O)NC(C)(C)c1ccc(S(=O)(=O)Nc2cc(-c3ccc4nc(N)sc4c3)cnc2Cl)cc1` [Example 323, N-(1-(4-((5-(2-amino-1,3-benzothiazol-6-yl)-2-chloro-3-pyridinyl)sulfamoyl)phenyl)-1-methylethyl)acetamide], the results for the 50% inhibitory concentration (IC50) (on PI3K β; in assay [1] (setting [2]); on PI3K α) were 33.2 nM, 915 nM and 19.6 nM, respectively.

For `CC(=O)Nc1nc2ccc(-c3ccnc(OCCCc4ccccc4)n3)cc2s1` [Example 4, N-(6-(2-(3-phenylpropoxy)-4-pyrimidinyl)-1,3-benzothiazol-2-yl)acetamide], the IC50 on PI3K β was 386 nM; in assay [1] (setting [2]), 2370 nM; on PI3K α, 151 nM.

Turning to `CC(=O)Nc1nc2ccc(-c3cncc(Cl)n3)cc2s1` [Example 150, N-(6-(6-chloro-2-pyrazinyl)-1,3-benzothiazol-2-yl)acetamide], the IC50 on PI3K β turned out to be 902 nM; in assay [1] (setting [2]), 503 nM; on PI3K α, 186 nM.

On to `COc1ccc(Sc2ncc(-c3ccc4nc(NC(C)=O)sc4c3)s2)cc1` [Example 62, N-(6-(2-(4-methoxyphenylthio)thiazol-5-yl)benzo[d]thiazol-2-yl)acetamide], for which the results for the IC50 (at PI3K β; in assay [1] (setting [2]); at PI3K α) were 5210 nM, 2580 nM and 29.9 nM, respectively.

Consider `CC(=O)Nc1nc2ccc(-c3cnc(Cl)c(NS(=O)(=O)c4ccc(O)cc4)c3)cc2s1` [Example 174, N-(6-(6-chloro-5-(4-hydroxyphenylsulfonamido)pyridin-3-yl)benzo[d]thiazol-2-yl)acetamide], for which the half-maximal inhibitory concentration (IC50) was 12.3 nM at PI3K β, 15.5 nM in assay [1] (setting [2]) and 7.2 nM at PI3K α.

As for `CC(=O)Nc1nc2ccc(-c3cncc(Sc4ccccc4F)n3)cc2s1` [Example 130, N-(6-(6-((2-fluorophenyl)sulfanyl)-2-pyrazinyl)-1,3-benzothiazol-2-yl)acetamide], the concentration for half-maximal inhibition (IC50) at PI3K β came to 65 nM; in assay [1] (setting [2]), 442 nM; on PI3K α, 39 nM.

Turning to `CN(C)c1cc(-c2ccc3nc(N)sc3c2)cnc1Cl` [Example 274, 6-(6-Chloro-5-(dimethylamino)pyridin-3-yl)benzo[d]thiazol-2-amine], the half-maximal inhibitory concentration (IC50) on PI3K β was 613 nM; in assay [1] (setting [2]), 985 nM; on PI3K α it was 191 nM.

In the case of `CC(=O)Nc1nc2ccc(-c3ccnc(NC4CCOCC4)n3)cc2s1` [Example 261, N-(6-(2-(tetrahydro-2H-pyran-4-ylamino)pyrimidin-4-yl)benzo[d]thiazol-2-yl)acetamide], the IC50 at PI3K β was 13100 nM; in assay [1] (setting [2]), 1700 nM; on PI3K α, 900 nM.

For the molecule `CC(=O)Nc1nc2ccc(-c3cnc(Cl)c(NS(=O)(=O)c4ccc(Cl)s4)c3)cc2s1` [Example 193, N-(6-(6-chloro-5-(2-chlorothiophene-5-sulfonamido)pyridin-3-yl)benzo[d]thiazol-2-yl)acetamide], the IC50 was determined as 9.6 nM at PI3K β, 16.8 nM in assay [1] (setting [2]) and 6.8 nM at PI3K α.

On to `CC(=O)Nc1nc2ccc(-c3cncc(S(=O)(=O)c4ccccc4F)n3)cc2s1` [Example 121, N-(6-(6-((2-fluorophenyl)sulfonyl)-2-pyrazinyl)-1,3-benzothiazol-2-yl)acetamide], for which the 50% inhibitory concentration (IC50) on PI3K β was 496 nM; in assay [1] (setting [2]), 190 nM; on PI3K α, 19.1 nM.

With `Cc1ccc(S(=O)(=O)Nc2nnc(-c3ccc4nc(NC(=O)OC(C)(C)C)sc4c3)o2)cc1` [Example 166, tert-Butyl 6-(5-(4-methylphenylsulfonamido)-1,3,4-oxadiazol-2-yl)benzo[d]thiazol-2-ylcarbamate], the values for the IC50 (on PI3K β; in assay [1] (setting [2]); at PI3K α) were 2200 nM, 239 nM and 336 nM, respectively.

For `Nc1nc2ccc(-c3cnc(Cl)c(NS(=O)(=O)c4ccccc4C(F)(F)F)c3)cc2s1` [Example 314, N-(5-(2-amino-1,3-benzothiazol-6-yl)-2-chloro-3-pyridinyl)-2-(trifluoromethyl)benzenesulfonamide], the results for the half-maximal inhibitory concentration (IC50) (at PI3K β; in assay [1] (setting [2]); on PI3K α) were 12.7 nM, 205 nM and 2.5 nM, respectively.

Take `CC(=O)Nc1nc2ccc(-c3cncc(N(C)S(=O)(=O)c4ccc(Cl)c(Cl)c4)c3)cc2s1` [Example 221, N-(6-(5-(3,4-dichloro-N-methylphenylsulfonamido)pyridin-3-yl)benzo[d]thiazol-2-yl)acetamide]: the results for the IC50 (at PI3K β; in assay [1] (setting [2]); on PI3K α) were 2100 nM, 320 nM and 79.2 nM, respectively.

Consider `COc1ccncc1-c1ccc2nc(NC(C)=O)sc2c1` [Example 241, N-(6-(4-methoxypyridin-3-yl)benzo[d]thiazol-2-yl)acetamide], for which the IC50 stood at 10700 nM at PI3K β, 816 nM in assay [1] (setting [2]) and 73.5 nM on PI3K α.

`CC(=O)Nc1nc2ccc(-c3ccnc(OCc4cccnc4)n3)cc2s1` [Example 2, N-(6-(2-(3-pyridinylmethoxy)-4-pyrimidinyl)-1,3-benzothiazol-2-yl)acetamide]: the IC50 on PI3K β was > 40000 nM; in assay [1] (setting [2]), 789 nM; at PI3K α it was 452 nM.

As for `COc1ccc(S(=O)(=O)Nc2cc(-c3ccc4nc(NC(C)=O)sc4c3)cnc2C#N)cc1` [Example 267, N-(6-(6-cyano-5-(4-methoxyphenylsulfonamido)pyridin-3-yl)benzo[d]thiazol-2-yl)acetamide], the results for the half-maximal inhibitory concentration (IC50) (at PI3K β; in assay [1] (setting [2]); at PI3K α) were 20.9 nM, 1430 nM and 14.5 nM, respectively.

Take `COc1cccc(S(=O)(=O)c2cccc(-c3ccc4nc(NC(C)=O)sc4c3)n2)c1` [Example 69, N-(6-(6-((3-methoxyphenyl)sulfonyl)-2-pyridinyl)-1,3-benzothiazol-2-yl)acetamide]: the IC50 on PI3K β came to 284 nM; in assay [1] (setting [2]), 296 nM; at PI3K α, 46.5 nM.

For `CC(=O)Nc1nc2ccc(-c3ccnc(OCCc4ccccc4)n3)cc2s1` [Example 7, N-(6-(2-(2-phenylethoxy)-4-pyrimidinyl)-1,3-benzothiazol-2-yl)acetamide], the IC50 on PI3K β is 2610 nM; in assay [1] (setting [3]), > 25000 nM; on PI3K α, 226 nM.

Turning to `COc1ccc(S(=O)(=O)Nc2cc(-c3ccc4nc(NC(C)=O)sc4c3)cnc2Cl)cc1` [Example 163, N-(6-(6-Chloro-5-(4-methoxyphenylsulfonamido)pyridin-3-yl)benzo[d]thiazol-2-yl)acetamide], the IC50 at PI3K β is 3.8 nM; in assay [1] (setting [2]), 3.8 nM; on PI3K α it was 3 nM.

Take `CC(=O)Nc1nc2ccc(-c3cnc(Cl)c(NS(=O)(=O)C4CCCCC4)c3)cc2s1` [Example 171, N-(6-(6-chloro-5-(cyclohexanesulfonamido)pyridin-3-yl)benzo[d]thiazol-2-yl)acetamide]: the values for the 50% inhibitory concentration (IC50) (on PI3K β; in assay [1] (setting [3]); on PI3K α) were 26.3 nM, 43.3 nM and 3.2 nM, respectively.

For the molecule `COc1ccc(S(=O)(=O)c2cncc(-c3ccc4nc(NC(C)=O)sc4c3)n2)cc1` [Example 120, N-(6-(6-((4-methoxyphenyl)sulfonyl)-2-pyrazinyl)-1,3-benzothiazol-2-yl)acetamide], the half-inhibitory concentration (IC50) on PI3K β worked out at 1070 nM; in assay [1] (setting [2]), 332 nM; on PI3K α, 16.4 nM.

Take `CC(=O)Nc1nc2ccc(-c3ccnc(N(C)S(=O)(=O)c4ccccc4)n3)cc2s1` [Example 91, N-(6-(2-(methyl(phenylsulfonyl)amino)-4-pyrimidinyl)-1,3-benzothiazol-2-yl)acetamide]: the IC50 on PI3K β was 237 nM; in assay [1] (setting [2]), 310 nM; on PI3K α, 181 nM.

Take `CC(=O)Nc1nc2ccc(-c3ccnc(OCc4ccc5c(c4)OCO5)n3)cc2s1` [Example 40, N-(6-(2-(1,3-benzodioxol-5-ylmethoxy)-4-pyrimidinyl)-1,3-benzothiazol-2-yl)acetamide]: the figures for the concentration for half-maximal inhibition (IC50) (at PI3K β; in assay [1] (setting [2]); on PI3K α) were 25100 nM, 1050 nM and 83.4 nM, respectively.

For `CC(=O)Nc1nc2ccc(-c3ccnc(OCc4ccc(C)cc4)n3)cc2s1` [Example 106, N-(6-(2-((4-methylbenzyl)oxy)-4-pyrimidinyl)-1,3-benzothiazol-2-yl)acetamide], the IC50 is 1240 nM on PI3K β, 2530 nM in assay [1] (setting [2]) and 220 nM at PI3K α.

`CC(=O)Nc1nc2ccc(-c3cccc(NS(=O)(=O)c4ccc(C)cc4)c3)nc2s1` [Example 136, N-(5-(3-(4-methylphenylsulfonamido)phenyl)thiazolo[5,4-b]pyridin-2-yl)acetamide]: the IC50 on PI3K β was determined as 199 nM; in assay [1] (setting [2]) it was 172 nM; on PI3K α, 58.6 nM.

Take `CC(=O)Nc1nc2ccc(-c3cncc(OCc4ccccc4)n3)cc2s1` [Example 135, N-(6-(6-(benzyloxy)-2-pyrazinyl)-1,3-benzothiazol-2-yl)acetamide]: the results for the concentration for half-maximal inhibition (IC50) (on PI3K β; in assay [1] (setting [2]); on PI3K α) were 219 nM, 1970 nM and 54.2 nM, respectively.

In the case of `CC(=O)Nc1nc2ccc(-c3ccnc(OCCCc4ccncc4)n3)cc2s1` [Example 44, N-(6-(2-(3-(4-pyridinyl)propoxy)-4-pyrimidinyl)-1,3-benzothiazol-2-yl)acetamide], the half-maximal inhibitory concentration (IC50) worked out at 2730 nM on PI3K β, 577 nM in assay [1] (setting [2]) and 97.9 nM on PI3K α.
